“And” between values parts separate entries of the source, which are not always exact repeats. Equal entries are not always repeated.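 Compound exposure: 48 hours, 5 concentrations, 96-well plates. The concentration for 50% growth inhibition is given as GI50. At the TGI there is no net growth.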
Key:
Experiment in all cases: growth of human tumour cells (NCI), 48 h
EKVX NSCLC = tested on: EKVX NSCLC
UACC-62 melanoma = tested on: UACC-62 melanoma
SN12C renal = tested on: SN12C renal
CAKI-1 renal = tested on: CAKI-1 renal
SF-295 CNS = tested on: SF-295 CNS
RPMI-8226 leukemia = tested on: RPMI-8226 leukemia
OVCAR-5 ovarian = tested on: OVCAR-5 ovarian
OVCAR-3 ovarian = tested on: OVCAR-3 ovarian
HCC-2998 colon = tested on: HCC-2998 colon
A549 NSCLC = tested on: A549 NSCLC

SMILES	TGI (EKVX NSCLC)	TGI (UACC-62 melanoma)	TGI (SN12C renal)	TGI (CAKI-1 renal)	TGI (SF-295 CNS)	TGI (RPMI-8226 leukemia)	TGI (OVCAR-5 ovarian)	TGI (OVCAR-3 ovarian)	TGI (HCC-2998 colon)	TGI (A549 NSCLC)	GI50 (EKVX NSCLC)	GI50 (UACC-62 melanoma)	GI50 (SN12C renal)	GI50 (CAKI-1 renal)	GI50 (SF-295 CNS)	GI50 (RPMI-8226 leukemia)	GI50 (OVCAR-5 ovarian)	GI50 (OVCAR-3 ovarian)	GI50 (HCC-2998 colon)	GI50 (A549 NSCLC)
N[C@H]1C2C3CC4C5CC(C42)C1(c1ccccc1)C53 (some centres not stated)	> 100 µM	> 100 µM	> 100 µM	> 100 µM	> 100 µM	> 100 µM	> 100 µM	> 100 µM	> 100 µM	> 100 µM	–	–	–	–	–	–	–	–	–	–
Nc1cccc2c1C(=O)N(C1CCC(=O)NC1=O)C2=O (configuration not stated)	> 100 µM	> 100 µM	> 100 µM	> 100 µM	> 100 µM	> 100 µM	> 100 µM	> 100 µM	> 100 µM	> 100 µM	> 100 µM	> 100 µM	> 100 µM	> 100 µM	> 100 µM	> 100 µM	> 100 µM	> 100 µM	> 100 µM	> 100 µM
CCOC(=O)c1cccc(=O)c(C(=O)OCC)c1	> 100 µM	> 100 µM	–	> 100 µM	–	> 100 µM	> 100 µM	> 100 µM	> 100 µM	> 100 µM	–	–	–	–	–	–	–	–	–	–
CCOC(=O)c1cnc(SCc2ccc(Cl)c(Cl)c2)nc1N1CC1	18.6 µM	19.5 µM	21.2 µM	6.98 µM	8.99 µM	9.64 µM	19.4 µM	7 µM	4.73 µM	16.1 µM	3.8 µM	4.23 µM	4.37 µM	2.08 µM	2.43 µM	2.54 µM	4.67 µM	2.63 µM	2.07 µM	3.72 µM
CC1(C)CC(=O)C2=C(C1)NC(SSC1=C(C#N)C(c3ccccc3)C3=C(CC(C)(C)CC3=O)N1)=C(C#N)C2c1ccccc1 (configuration not stated)	56.2 µg/mL	47.6 µg/mL	43.7 µg/mL	49.4 µg/mL	> 150 µg/mL	134 µg/mL	50.9 µg/mL	47.8 µg/mL	52.6 µg/mL	> 150 µg/mL	28.6 µg/mL	26.3 µg/mL	23.5 µg/mL	28.3 µg/mL	112 µg/mL	46.5 µg/mL	27.8 µg/mL	26.3 µg/mL	27.8 µg/mL	50.5 µg/mL
O=C1C2CC(Cl)C(SSC3CC4C(=O)N(SC(Cl)(Cl)C(Cl)Cl)C(=O)C4CC3Cl)CC2C(=O)N1SC(Cl)(Cl)C(Cl)Cl (configuration not stated)	15.5 µM	4.49 µM	5.24 µM	6.7 µM	17.1 µM	5.35 µM	66.3 µM	5.07 µM	16.4 µM	28.3 µM	–	–	–	–	–	–	–	–	–	–
Cc1ccc(S(=O)(=O)NC(CCC(=O)Nc2ccc(Cl)cc2)C(=O)Nc2ccc(Cl)cc2)cc1 (configuration not stated)	9.31 µM	0.367 µM	8.84 µM	8.14 µM	0.956 µM	7.43 µM	11.4 µM	5.8 µM	7.14 µM	6.72 µM	2.01 µM	0.0967 µM	0.685 µM	0.473 µM	0.187 µM	0.826 µM	4.31 µM	0.93 µM	1.48 µM	0.178 µM
COc1cc(CCc2cc(NC(=O)c3ccc(N4C[C@@H](C)N[C@@H](C)C4)cc3)n[nH]2)cc(OC)c1	> 10 µM	> 10 µM and 21.2 µM	> 10 µM and 15.7 µM	> 10 µM and 21.8 µM	> 10 µM and 21.3 µM	> 10 µM and 19.6 µM	> 10 µM and 16.9 µM	> 10 µM and 30 µM	> 10 µM and 19.5 µM	> 10 µM and 15.3 µM	> 10 µM	> 10 µM and 6.82 µM	6.39 µM and 3.31 µM	> 10 µM and 5.76 µM	> 10 µM and 6.8 µM	4.82 µM and 4.65 µM	> 10 µM and 5.01 µM	> 10 µM and 15.7 µM	> 10 µM and 6.77 µM	> 10 µM and 3.9 µM
CC1=C(C(=O)Nc2ccc([N+](=O)[O-])cc2)C(c2ccco2)C(C(=O)Nc2ccc([N+](=O)[O-])cc2)=C(C)N1	73.6 µM	–	> 100 µM	90.1 µM	> 100 µM	25.5 µM	> 100 µM	88.3 µM	47.9 µM	> 100 µM	–	–	–	–	–	–	–	–	–	–
O=C1C2=C(c3ccccc31)C(c1ccc(Cl)cc1)N1C(=O)CCSC1=N2 (configuration not stated)	> 100 µM	> 100 µM	> 100 µM	> 100 µM	> 100 µM	> 100 µM	> 100 µM	> 100 µM	> 100 µM	> 100 µM	–	–	–	–	–	–	–	–	–	–
O=[N+]([O-])c1ccc(Sc2ncccn2)c([N+](=O)[O-])c1	18.7 µM	16.2 µM	13.9 µM	3.59 µM	20 µM	5.4 µM	19.8 µM	10.3 µM	26.5 µM	14.2 µM	3.96 µM	4.31 µM	3.46 µM	1.36 µM	5.93 µM	1.89 µM	7.35 µM	3.38 µM	13 µM	3.95 µM
COc1ccc(-c2cc(-c3ccc(Nc4nc(Nc5ccc(Cl)cc5)nc(Nc5ccc(Cl)cc5)n4)cc3)nc(N)c2C#N)cc1	> 21.9 µM	10.6 µM	> 100 µM	4.38 µM	13.4 µM	> 21.9 µM	24 µM	3.18 µM	4.55 µM	> 100 µM	8.16 µM	2.64 µM	2.58 µM	1.47 µM	1.68 µM	0.931 µM	4.14 µM	1.68 µM	1.85 µM	3.64 µM
O=C(c1cccs1)c1c(C(F)(F)F)n([O-])c2ccc(C(F)(F)F)cc2[n+]1=O	0.529 µM	1.08 µM	0.468 µM	0.337 µM	1 µM	1.12 µM	0.494 µM	0.744 µM	1.28 µM	0.31 µM	0.241 µM	0.34 µM	0.195 µM	0.18 µM	0.464 µM	0.279 µM	0.205 µM	0.258 µM	0.647 µM	0.134 µM
C1=CN2C[n+]3cccc(OCc4ccccc4)c3N=C2C(OCc2ccccc2)=C1	> 100 µM	26.6 µM	25.3 µM	73.1 µM	50 µM	9.26 µM	> 100 µM	25 µM	23.2 µM	> 100 µM	–	–	–	–	–	–	–	–	–	–

From PubChem BioAssay (NCI)
